From ChEMBL document CHEMBL3877246, “Antileishmanial effect of new indeno-1,5-naphthyridines, selective inhibitors of Leishmania infantum type IB DNA topoisomerase” (Eur J Med Chem, 2016)
Calls of active or inactive are those of the source. The calls are words filed in the database; no cut-off is given here.

Columns and labels:
[1] = Cytotoxicity against BALB/c mouse splenocytes assessed as cell viability after 48 hrs by alamar blue assay; assay type: toxicity, Splenocyte
[2] = Selectivity index, ratio of CC50 for BALB/c mouse splenocytes to IC50 for Leishmania infantum amastigotes harboring iRFP gene infected BALB/c mouse splenocytes; assay type: functional
[3] = tested on: Leishmania infantum; test: Antileishmanial activity against Leishmania infantum amastigotes harboring iRFP gene infected BALB/c mouse splenocytes after 48 hrs by infrared imaging method; assay type: functional
[4] = tested on: Leishmania infantum; test: Antileishmanial activity against Leishmania infantum BCN150 promastigotes harboring iRFP gene by infrared imaging method; assay type: functional
[5] = species on record: Homo sapiens; test: Inhibition of human recombinant topoisomerase 1B expressed in topoisomerase 1B- deficient Saccharomyces cerevisiae EKY3 assessed as decrease in relaxation of negatively supercoiled pSK DNA at 100 uM preincubated for 5 mins followed by supercoiled pSK DNA addition measured after 5 mins by aggarose gel electrophoresis
[6] = Inhibition of Leishmania infantum recombinant topoisomerase 1B expressed in topoisomerase 1B- deficient Saccharomyces cerevisiae EKY3 assessed as decrease in relaxation of negatively supercoiled pSK DNA preincubated for 15 mins followed by supercoiled pSK DNA addition measured after 5 mins by aggarose gel electrophoresis
[7] = tested on: Leishmania infantum; test: Inhibition of Leishmania infantum recombinant topoisomerase 1B expressed in topoisomerase 1B- deficient Saccharomyces cerevisiae EKY3 assessed as decrease in relaxation of negatively supercoiled pSK DNA at 100 uM preincubated for 5 mins followed by supercoiled pSK DNA addition measured after 5 mins by aggarose gel electrophoresis
[8] = tested on: Leishmania infantum; test: Inhibition of Leishmania infantum recombinant topoisomerase 1B expressed in topoisomerase 1B- deficient Saccharomyces cerevisiae EKY3 assessed as decrease in relaxation of negatively supercoiled pSK DNA at 100 uM preincubated for 15 mins followed by supercoiled pSK DNA addition measured after 5 mins by aggarose gel electrophoresis
[9] = Inhibition of human recombinant topoisomerase 1B expressed in topoisomerase 1B- deficient Saccharomyces cerevisiae EKY3 assessed as decrease in relaxation of negatively supercoiled pSK DNA preincubated for 15 mins followed by supercoiled pSK DNA addition measured after 5 mins by aggarose gel electrophoresis
[10] = species on record: Homo sapiens; test: Inhibition of human recombinant topoisomerase 1B expressed in topoisomerase 1B- deficient Saccharomyces cerevisiae EKY3 assessed as decrease in relaxation of negatively supercoiled pSK DNA at 100 uM preincubated for 1 min followed by supercoiled pSK DNA addition measured after 5 mins by aggarose gel electrophoresis
[11] = species on record: Homo sapiens; test: Inhibition of human recombinant topoisomerase 1B expressed in topoisomerase 1B- deficient Saccharomyces cerevisiae EKY3 assessed as decrease in relaxation of negatively supercoiled pSK DNA at 100 uM preincubated for 15 mins followed by supercoiled pSK DNA addition measured after 5 mins by aggarose gel electrophoresis
[12] = tested on: Leishmania infantum; test: Inhibition of Leishmania infantum recombinant topoisomerase 1B expressed in topoisomerase 1B- deficient Saccharomyces cerevisiae EKY3 assessed as decrease in relaxation of negatively supercoiled pSK DNA at 100 uM preincubated for 1 min followed by supercoiled pSK DNA addition measured after 5 mins by aggarose gel electrophoresis

SMILES	CC50 at 48 h [1] [µM]	Ratio CC50/IC50 [2]	IC50 [3] [µM]	IC50 [4] [µM]	inhibition [5]	IC50 [6] [µM]	inhibition [7]	inhibition [8]	IC50 [9] [µM]	inhibition [10]	inhibition [11]	inhibition [12]
Fc1ccc(-c2nc3cccnc3c3c2Cc2ccccc2-3)c(F)c1	76.9	12.7	6.07									
c1ccc(-c2nc3cccnc3c3c2Cc2ccccc2-3)cc1	90.2	1.43	63.3	70.1								
O=[N+]([O-])c1ccc([C@H]2Nc3cccnc3[C@H]3c4ccccc4C[C@H]32)cc1 (relative stereo)	> 100	>1.09	91.3	> 100	Active	> 100	Active	Active	10.7	Active		
C[C@@H]1[C@H](O)[C@@H](C)/C=C/C=C/C=C/C=C/C=C/C=C/C=C/[C@H](O[C@@H]2O[C@H](C)[C@@H](O)[C@H](N)[C@@H]2O)C[C@@H]2O[C@](O)(C[C@@H](O)C[C@@H](O)[C@H](O)CC[C@@H](O)C[C@@H](O)CC(=O)O[C@H]1C)C[C@H](O)[C@H]2C(=O)O [AMPHOTERICIN B]	> 20	>62.5	0.32	0.77								
FC(F)(F)c1ccc(-c2nc3cccnc3c3c2Cc2ccccc2-3)cc1	126	37.6	3.35	84.7	Active	23.6	Active	Active	27.4	Active	Active	Active
C[C@H]1Nc2cccnc2[C@H]2c3ccccc3C[C@H]21 (relative stereo)	> 100	>1.12	89.4	> 100								
Fc1ccc([C@H]2Nc3cccnc3[C@H]3c4ccccc4C[C@H]32)cc1F (relative stereo)	77.5	1.02	76.2	86.8	Active				24.4	Active		
Fc1ccc(-c2nc3cccnc3c3c2Cc2ccccc2-3)cc1F	74.2	0.95	78.2	86.1								
CC[C@@]1(O)C(=O)OCc2c1cc1n(c2=O)Cc2cc3ccccc3nc2-1 [CAMPTOTHECIN]	0.62	20.7	0.03	1.12						Active		Active
c1ccc2c(c1)C[C@@H]1[C@H]2c2ncccc2N[C@@H]1c1ccncc1 (relative stereo)	94.6	1.45	65.2	82.5								
FC(F)(F)c1ccc([C@H]2Nc3cccnc3[C@H]3c4ccccc4C[C@H]32)cc1 (relative stereo)	4.6			6.1	Active	60.6	Active	Active	22.4		Active	
COc1cccc(-c2nc3cccnc3c3c2Cc2ccccc2-3)c1	> 100	>1.07	93.3	> 100		29.5	Active	Active				Active
c1ccc2c(c1)Cc1c(-c3ccncc3)nc3cccnc3c1-2	19.9			33.9								
COc1cccc([C@H]2Nc3cccnc3[C@H]3c4ccccc4C[C@H]32)c1 (relative stereo)	35.8	66.3	0.54	5.4		21.8	Active					Active
Fc1cccc([C@H]2Nc3cccnc3[C@H]3c4ccccc4C[C@H]32)c1 (relative stereo)	85.3	0.9	94.7	89.9								
COc1ccc(-c2nc3cccnc3c3c2Cc2ccccc2-3)cc1	116	20.1	5.8			14.1	Active	Active				Active
Fc1ccc(-c2nc3cccnc3c3c2Cc2ccccc2-3)cc1	50.5	68.2	0.74	34.9	Active	14.7	Active	Active	87.7	Active		Active
CCOC(=O)c1nc2cccnc2c2c1Cc1ccccc1-2	59.4	2.4	25.1	33.3								
Fc1ccc([C@H]2Nc3cccnc3[C@H]3c4ccccc4C[C@H]32)c(F)c1 (relative stereo)	32.1	47.9	0.67	3.7		41.8	Active					Active
CCOC(=O)[C@H]1Nc2cccnc2[C@H]2c3ccccc3C[C@H]21 (relative stereo)	> 100	>1.27	78.5	90.8								
Cc1ccc(-c2nc3cccnc3c3c2Cc2ccccc2-3)cc1	68.2	1.17	58.3	69.4								
Fc1ccc([C@H]2Nc3cccnc3[C@H]3c4ccccc4C[C@H]32)cc1 (relative stereo)	57.9	19.5	2.97	9.8		49	Active	Active				
c1ccc([C@H]2Nc3cccnc3[C@H]3c4ccccc4C[C@H]32)cc1	94.3	1.45	65.1	> 100	Active	45.2	Active	Active	46.5	Active		
CSc1ccc(-c2nc3cccnc3c3c2Cc2ccccc2-3)cc1	80.9	1.39	58.1	75.1								
